This experiment concerns the target Jack bean urease (Canavalia ensiformis, UniProt P07374). The experiment in a line: indophenol ammonia assay, […] nm. In kind it is biochemical.

SMILES strings stand for the structures.

Chain of Jack bean urease (P07374 whole entry): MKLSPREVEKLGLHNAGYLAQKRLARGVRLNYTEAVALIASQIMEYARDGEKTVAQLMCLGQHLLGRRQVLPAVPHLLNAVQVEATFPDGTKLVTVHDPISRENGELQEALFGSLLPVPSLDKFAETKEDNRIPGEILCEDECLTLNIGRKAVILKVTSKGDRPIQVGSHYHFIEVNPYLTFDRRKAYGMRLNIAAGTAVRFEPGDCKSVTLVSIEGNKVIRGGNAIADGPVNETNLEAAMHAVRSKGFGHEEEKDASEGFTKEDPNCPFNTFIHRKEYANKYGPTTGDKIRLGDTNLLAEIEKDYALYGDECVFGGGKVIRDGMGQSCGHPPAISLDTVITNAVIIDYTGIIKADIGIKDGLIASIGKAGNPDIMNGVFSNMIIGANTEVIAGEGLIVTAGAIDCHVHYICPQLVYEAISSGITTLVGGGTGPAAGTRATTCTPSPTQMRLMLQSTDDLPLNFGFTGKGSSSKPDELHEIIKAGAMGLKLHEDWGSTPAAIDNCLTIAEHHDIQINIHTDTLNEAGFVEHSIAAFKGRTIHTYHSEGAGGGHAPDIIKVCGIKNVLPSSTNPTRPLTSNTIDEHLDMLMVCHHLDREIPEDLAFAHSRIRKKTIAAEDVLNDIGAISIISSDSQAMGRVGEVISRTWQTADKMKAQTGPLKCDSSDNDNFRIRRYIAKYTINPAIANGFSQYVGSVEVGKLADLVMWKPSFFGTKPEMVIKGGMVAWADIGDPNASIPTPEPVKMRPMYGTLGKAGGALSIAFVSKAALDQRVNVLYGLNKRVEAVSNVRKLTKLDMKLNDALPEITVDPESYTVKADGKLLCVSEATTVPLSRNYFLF

The IC50 is the point on the concentration scale where inhibition reaches its midpoint. Low readings indicate inhibition by little substance, high ones a need for much substance. `NC(N)=S` [Thiourea, reference compound] showed an IC50 of 717 µM. `CCOC(=O)N1CCN(c2ccc(NCc3nn(CN[C@@H]4C(=O)N5C(C(=O)O)=C(COC(C)=O)CS[C@H]45)c(=S)n3-c3ccc(F)cc3)cc2F)CC1` [compound 15, ({[(6R,7R)-3-[(Acetyloxy)methyl]-7-({[3-[({4-[4-(ethoxycarbonyl)piperazin-1-yl]-3-fluorophenyl}amino)methyl]-4-(4-fluorophenyl)-5-thioxo-4,5-dihydro-1H-1,2,4-triazol-1-yl]methyl}amino)-8-oxo-5-thia-1-azabicyclo[4.2.0]oct-2-en-2-yl]carbonyl}oxy)triethyl ammonium] had an IC50 of 6.15 µM.

In turn, `CCOC(=O)N1CCN(c2ccc(NCc3nn(CN[C@@H]4C(=O)N5[C@@H]4SC(C)(C)[C@@H]5C(=O)O)c(=S)n3-c3ccccc3)cc2F)CC1` [compound 17, [({(5R,6R)-6-[({3-[({4-[4-(Ethoxycarbonyl)piperazin-1-yl]-3-fluorophenyl}amino)methyl]-4-phenyl-5-thioxo-4,5-dihydro-1H-1,2,4-triazol-1-yl}methyl)amino]-3,3-dimethyl-7-oxo-4-thia-1-azabicyclo[3.2.0]hept-2-yl}carbonyl)oxy](triethyl)ammonium] had a concentration for half-maximal inhibition (IC50) of 66.3 µM.

The values are drawn from paper PMC3973943, “Microwave-assisted synthesis of some hybrid molecules containing penicillanic acid or cephalosporanic acid moieties and investigation of their biological activities” (Medicinal Chemistry Research, 2013).
